How the values were obtained:
DPAGT1 Arg301Cys = molecular target: T1, DPAGT1 Arg301Cys (Homo sapiens, UniProt Q9H3H5, R301C); assay: Thermostability assay (label free differential scanning fluorimetry); assay type: binding, H. sapiens; conditions: 50 μM compound
T1 construct: combined with the LIC-adapted primers to amplify the complete DPAGT1 gene, including the desired mutations; 6xHis purification tag with TEV site (N, cleaved yes); made in house; host or cells: Spodoptera frugiperda Sf9 insect cells (baculovirus)
T1 sequence (Q9H3H5 1-408 R301C): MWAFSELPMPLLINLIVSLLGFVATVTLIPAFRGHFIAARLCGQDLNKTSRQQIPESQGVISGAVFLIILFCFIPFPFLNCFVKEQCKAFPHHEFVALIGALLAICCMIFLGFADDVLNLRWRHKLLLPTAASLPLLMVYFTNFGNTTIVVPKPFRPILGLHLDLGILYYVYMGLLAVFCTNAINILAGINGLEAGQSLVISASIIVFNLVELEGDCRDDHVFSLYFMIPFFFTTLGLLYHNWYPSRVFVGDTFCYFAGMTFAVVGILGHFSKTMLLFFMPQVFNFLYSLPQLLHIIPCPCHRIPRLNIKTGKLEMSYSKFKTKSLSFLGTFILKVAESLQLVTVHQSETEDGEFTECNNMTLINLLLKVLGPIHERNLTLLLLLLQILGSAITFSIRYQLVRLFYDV
Method: (§1) Samples with a volume of 40 μl were prepared containing 0.5 mg/ml protein and 50 μM compound or 5% DMSO in GFB. A glass capillary was dipped into each sample, with the capillary held horizontally to ensure that the capillary was full of the sample. The capillaries were placed on the capillary holder on the Nanotemper Prometheus. Technical triplicates of each sample were prepared, and each experiment was conducted with biological triplicates of each protein. PR.ThermControl software was used to run the experiment and analyse the data. A melting curve from 20 °C – 95 °C at 5 °C/min was performed. The minimum of the first derivative of the 330/350nm ratio was used to determine the Tm1/2.

DPAGT1 Arg301His = molecular target: T2, DPAGT1 Arg301His (Homo sapiens, UniProt Q9H3H5, R301H); assay: as above; assay type: binding, H. sapiens; conditions: 50 μM compound
T2 construct: combined with the LIC-adapted primers to amplify the complete DPAGT1 gene, including the desired mutations; 6xHis purification tag with TEV site (N, cleaved yes); made in house; host or cells: Spodoptera frugiperda Sf9 insect cells (baculovirus)
T2 sequence (Q9H3H5 1-408 R301H): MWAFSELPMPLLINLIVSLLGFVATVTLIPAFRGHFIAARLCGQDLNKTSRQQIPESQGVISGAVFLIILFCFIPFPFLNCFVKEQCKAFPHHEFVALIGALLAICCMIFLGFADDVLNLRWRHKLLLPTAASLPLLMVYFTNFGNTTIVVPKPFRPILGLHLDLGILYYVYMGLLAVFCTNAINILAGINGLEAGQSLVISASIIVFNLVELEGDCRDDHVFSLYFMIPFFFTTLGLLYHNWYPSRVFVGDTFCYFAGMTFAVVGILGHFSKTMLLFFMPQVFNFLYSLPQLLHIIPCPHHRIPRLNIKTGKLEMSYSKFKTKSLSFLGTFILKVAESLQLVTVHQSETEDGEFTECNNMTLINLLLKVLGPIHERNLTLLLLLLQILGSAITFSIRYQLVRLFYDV
Method: as §1

DPAGT1 Leu168Pro = molecular target: T3, DPAGT1 Leu168Pro (Homo sapiens, UniProt Q9H3H5, L168P); assay: as above; assay type: binding, H. sapiens; conditions: 50 μM compound
T3 construct: combined with the LIC-adapted primers to amplify the complete DPAGT1 gene, including the desired mutations; 6xHis purification tag with TEV site (N, cleaved yes); made in house; host or cells: Spodoptera frugiperda Sf9 insect cells (baculovirus)
T3 sequence (Q9H3H5 1-408 L168P): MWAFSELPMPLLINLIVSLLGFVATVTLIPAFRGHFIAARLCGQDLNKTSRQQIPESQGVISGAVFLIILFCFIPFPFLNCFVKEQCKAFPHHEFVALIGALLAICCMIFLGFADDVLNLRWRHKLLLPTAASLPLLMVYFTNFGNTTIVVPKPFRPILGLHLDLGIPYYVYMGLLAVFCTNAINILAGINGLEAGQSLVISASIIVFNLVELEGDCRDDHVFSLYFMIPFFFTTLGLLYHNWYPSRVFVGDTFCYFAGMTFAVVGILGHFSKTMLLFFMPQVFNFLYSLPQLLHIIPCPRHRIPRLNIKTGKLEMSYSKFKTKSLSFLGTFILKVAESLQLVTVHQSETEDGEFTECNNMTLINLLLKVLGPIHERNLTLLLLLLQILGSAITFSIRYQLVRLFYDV
Method: as §1

DPAGT1 Tyr170Cys = molecular target: T4, DPAGT1 Tyr170Cys (Homo sapiens, UniProt Q9H3H5, Y170C); assay: as above; assay type: binding, H. sapiens; conditions: 50 μM compound
T4 construct: combined with the LIC-adapted primers to amplify the complete DPAGT1 gene, including the desired mutations; 6xHis purification tag with TEV site (N, cleaved yes); made in house; host or cells: Spodoptera frugiperda Sf9 insect cells (baculovirus)
T4 sequence (Q9H3H5 1-408 Y170C): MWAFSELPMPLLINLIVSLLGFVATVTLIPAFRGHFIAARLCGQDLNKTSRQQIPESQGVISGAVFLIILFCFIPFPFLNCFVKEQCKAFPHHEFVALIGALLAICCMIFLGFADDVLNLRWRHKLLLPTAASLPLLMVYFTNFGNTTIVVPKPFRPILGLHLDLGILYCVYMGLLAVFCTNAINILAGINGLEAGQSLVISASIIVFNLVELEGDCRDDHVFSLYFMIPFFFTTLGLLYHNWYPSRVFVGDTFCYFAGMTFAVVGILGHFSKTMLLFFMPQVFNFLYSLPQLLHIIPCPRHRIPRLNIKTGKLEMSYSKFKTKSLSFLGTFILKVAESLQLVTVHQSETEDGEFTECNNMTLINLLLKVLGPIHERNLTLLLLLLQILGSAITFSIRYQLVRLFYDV
Method: as §1

DPAGT1 Val264Gly = molecular target: T5, DPAGT1 Val264Gly (Homo sapiens, UniProt Q9H3H5, V264G); assay: as above; assay type: binding, H. sapiens; conditions: 50 μM compound
T5 construct: H. sapiens DPAGT1 (1-408, Val264Gly, N-terminal 6 x HIS tag, TEV cleavage site); 6xHis purification tag with TEV site (N, cleaved yes); made in house; host or cells: Spodoptera frugiperda Sf9 insect cells (baculovirus)
T5 sequence (Q9H3H5 1-408 V264G): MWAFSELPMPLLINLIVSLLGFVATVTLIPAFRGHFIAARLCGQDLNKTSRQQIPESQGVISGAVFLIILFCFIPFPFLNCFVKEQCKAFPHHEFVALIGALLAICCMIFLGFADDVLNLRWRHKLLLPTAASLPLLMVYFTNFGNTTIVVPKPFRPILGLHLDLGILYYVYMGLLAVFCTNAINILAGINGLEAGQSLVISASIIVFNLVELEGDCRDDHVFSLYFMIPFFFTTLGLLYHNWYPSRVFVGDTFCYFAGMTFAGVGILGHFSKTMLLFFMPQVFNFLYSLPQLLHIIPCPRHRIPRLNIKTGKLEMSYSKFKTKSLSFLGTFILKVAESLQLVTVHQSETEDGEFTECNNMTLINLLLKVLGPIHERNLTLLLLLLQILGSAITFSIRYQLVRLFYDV
Method: as §1

DPAGT1 WT = molecular target: T6, DPAGT1 WT (Homo sapiens, UniProt Q9H3H5); assay: as above; assay type: binding, H. sapiens; conditions: 50 μM compound
T6 construct: H. sapiens DPAGT1 (1-408, N-terminal 6 x HIS tag, TEV cleavage site); 6xHis purification tag with TEV site (N, cleaved yes); made in house; host or cells: Spodoptera frugiperda Sf9 insect cells (baculovirus)
T6 sequence (Q9H3H5 1-408): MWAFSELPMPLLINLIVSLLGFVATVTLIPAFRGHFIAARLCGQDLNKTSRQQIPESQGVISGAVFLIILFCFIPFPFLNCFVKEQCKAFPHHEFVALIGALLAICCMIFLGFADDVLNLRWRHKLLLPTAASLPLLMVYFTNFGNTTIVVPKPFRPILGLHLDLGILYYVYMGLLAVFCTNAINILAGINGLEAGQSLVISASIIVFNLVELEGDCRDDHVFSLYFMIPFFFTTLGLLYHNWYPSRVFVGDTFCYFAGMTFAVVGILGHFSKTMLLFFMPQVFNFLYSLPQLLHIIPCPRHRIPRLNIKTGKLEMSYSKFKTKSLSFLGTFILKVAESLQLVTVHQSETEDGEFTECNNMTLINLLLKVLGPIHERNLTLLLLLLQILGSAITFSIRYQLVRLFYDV
Method: as §1

DPAGT1 = molecular target: T7, DPAGT1 (Homo sapiens, UniProt Q9H3H5); assay: Radiolabeled substrate enzyme activity assay; assay type: biochemical, H. sapiens; conditions: product inhibition test
T7 construct: H. sapiens DPAGT1 (1-408, N-terminal 6 x HIS tag, TEV cleavage site); 6xHis purification tag with TEV site (N, cleaved yes); made in house; host or cells: Spodoptera frugiperda Sf9 insect cells (baculovirus)
T7 sequence (Q9H3H5 1-408): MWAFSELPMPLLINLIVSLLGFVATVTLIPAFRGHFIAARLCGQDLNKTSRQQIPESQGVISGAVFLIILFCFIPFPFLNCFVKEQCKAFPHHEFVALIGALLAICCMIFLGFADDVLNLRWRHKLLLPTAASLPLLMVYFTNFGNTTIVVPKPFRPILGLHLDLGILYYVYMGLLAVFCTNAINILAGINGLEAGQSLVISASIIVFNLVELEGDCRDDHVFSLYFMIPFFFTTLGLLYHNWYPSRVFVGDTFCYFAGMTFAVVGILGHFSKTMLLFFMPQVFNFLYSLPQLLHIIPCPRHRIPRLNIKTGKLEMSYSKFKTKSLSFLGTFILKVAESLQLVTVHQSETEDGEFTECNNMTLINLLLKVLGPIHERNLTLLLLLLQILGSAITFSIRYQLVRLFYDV
Method: 2 μl of 2 μM DPAGT1 WT or mutant proteins in GFB buffer supplemented with 5mM extra MgCl2, 1% OGNG/CHS/cardiolipin and dolichyl monophosphate was combined with 2 μl of UDP-N-acetyl [1-14C] […] The reaction was terminated by the addition of 6 μl of 100% methanol and immediately transferred onto ice. 1 μl of sample was spotted onto a silica coated TLC plate in triplicate and run with a mobile phase consisting of chloroform, methanol, and water at a 65:25:4 ratio respectively. After the run, the TLC plate was dried thoroughly, wrapped in cling film, incubated with a phosphor imaging substrate for 4 days, then phosphor imaged using a Biorad. The pixel density of the spots corresponding to the hydrophobic product was divided by combined pixel density of the product and the substrate and multiplied by the known concentration of substrate added to ascertain the amount of product formed.

| Compound | Thermostability (Tm1/2) with added compound (DPAGT1 Arg301Cys) | Thermostability (Tm1/2) with added compound (DPAGT1 Arg301His) | Thermostability (Tm1/2) with added compound (DPAGT1 Leu168Pro) | Thermostability (Tm1/2) with added compound (DPAGT1 Tyr170Cys) | Thermostability (Tm1/2) with added compound (DPAGT1 Val264Gly) | Thermostability (Tm1/2) with added compound (DPAGT1 WT) | effect of adding product on DPAGT1 activity (DPAGT1) |
| --- | --- | --- | --- | --- | --- | --- | --- |
| CC(=O)NC1C(OP(=O)(O)OP(=O)(O)OCC2OC(n3ccc(=O)[nH]c3=O)C(O)C2O)OC(CO)C(O)C1O (stereo not shown) [UDP-GlcNAc, UDP-N-acetyl glucosamine] | 52.5±0.6 °C | 52.4±1.0 °C | 53.8±1.1 °C | 54.0±0.8 °C | 54.6±0.4 °C | 55.1±0.4 °C | – |
| O=c1ccn([C@@H]2O[C@H](COP(=O)(O)O)[C@@H](O)[C@H]2O)c(=O)[nH]1 [UMP] | 51.4±0.8 °C | 51.4±0.9 °C | 50.4±0.6 °C | 50.7±0.3 °C | 50.5±0.2 °C | 51.7±0.2 °C | no effect |

Reference: publication PMC6218659, “Structures of DPAGT1 Explain Glycosylation Disease Mechanisms and Advance TB Antibiotic Design” (Cell, 2018)
